The assay concerns SUM149PT spheroids with HUVEC/MSC, viability. In words: Anticancer human tumor SUM149PT cell line growth inhibition [GQUAD].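 As to all read-outs here: spheroids exposed to drugs for seven days before readout.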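 As to viability, T/C: percent viability relative to DMSO vehicle control taken as 100%.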 The note with it: for viability, T/C: stronger effect = lower value. An excerpt: DNA G-quadruplex Stabilizer Agents in Combinations in Complex Spheroids
A high-throughput screen of multi-cell type tumor spheroids was designed to identify active combinations of DNA G-quadruplex stabilizer agents and targeted small molecules. Complex spheroids include a stromal component modeled by human endothelial cells (HUVEC) and fibroblasts modeled by human mesenchymal stem cells (MSCs). The concentration ranges selected for each drug and investigational agent were based upon clinically achievable concentrations if the clinical Cmax of the agent was known.
Compounds. The drugs and investigational agents: pidnarulex (CX-5461; NSC782164), APTO-253 (NSC789042), BRACO-19 (NSC847499), peposertib (NSC802822), ceralasertib (NSC780249), elimusertib (NSC800525), camonsertib (NSC841442), AZD-1390 (NSC803789), olaparib (NSC753686), talazoparib (NSC767125), ART-558 (NSC835418), sotorasib (NSC818433), MRTX-1133 (NSC836407), SN-38 (NSC673596), topotecan (NSC609699), etoposide (NSC141540), doxorubicin (NSC123127), gemcitabine (NSC613327), 5-fluorouracil (NSC19893), paclitaxel (NSC125973), vemurafenib (NSC761431), panobinostat (NSC761190), R-306465 (JNJ-16241199; NSC773264), adavosertib (NSC754352), TP-3654 (NSC805149), carboplatin (NSC241240), KSQ-4279 (NSC840948), and staurosporine (NSC755774) were obtained from the National Cancer Institute (NCI) Developmental Therapeutics Program Chemical Repository (34). The FDA-approved anticancer drug set is available from the NCI Developmental Therapeutics Program. […] The stock solutions were prepared in dimethyl sulfoxide (DMSO, Sigma-Aldrich, St. Louis, MO, cat. D2650) at 800-fold the tested concentration and stored at -70 degrees C prior to their use. All drugs and investigational agents were tested over a range starting from a high concentration at or near the clinical Cmax and decreasing in half-log increments. If the clinical Cmax for an agent had not been determined, the highest concentration tested was 10 microM.
2.3 Cell Culture. All cells were maintained in an incubator at 37 degrees C and 5% CO2 with 95% humidity. The PDC lines were cultured according to standard operating procedures established by the NCI PDMR. All PDCs were thawed and cultured in Matrigel-coated flasks prepared with a working solution of 1X Ham's F-12 nutrient mix, without supplementation (Invitrogen, cat. 11765054), 100 U/mL penicillin-streptomycin (Invitrogen, cat. 15140122), and 2.5% Matrigel (Corning Inc., cat. 354248) for the first three passages. The 857933-349-R-J2-PDC line was cultured in 6C/Colon 1B media, which includes advanced DMEM/F-12 (Thermo Fisher Scientific, cat. 12634028), 10 mM HEPES (Thermo Fisher Scientific, cat. 15630080), 1X GlutaMAX supplement (Thermo Fisher Scientific, cat. 35050061), 0.1 mg/mL primocin (InvivoGen, cat. ant-pm-2), 10% defined fetal bovine serum, heat inactivated (HyClone Laboratories Inc., cat. SH30070.03HI), 50% L-WRN conditioned media (ATCC, cat. CRL-3276), 1.25 mM N-Acetyl-L-cysteine (Sigma-Aldrich, cat. A9165), 10 mM nicotinamide (Sigma-Aldrich, cat. N0636), 1X B-27 supplement (Thermo Fisher Scientific, cat. 17504044), 1X N-2 supplement (Thermo Fisher Scientific, cat. 17502048), 10 microM Y-27632 dihydrochloride (Tocris Bioscience, cat. 1254), and 50 ng/mL human EGF recombinant protein (Thermo Fisher Scientific, cat. PHG0311). The 485176-168-R4-J1-PDC line was cultured in Panc media, which includes all 6C/Colon 1B media components plus 100 ng/mL human FGF-10 (Thermo Fisher Scientific, cat. 100-26), 500 nM SB-431542 (Selleckchem, cat. S1067), and gastrin (Tocris, cat. 3006).
[…]

“And” between values parts separate entries of the source, which are not always exact repeats. Equal entries are not always repeated.

For `C#Cc1c(F)ccc2cc(O)cc(-c3ncc4c(N5CC6CCC(C5)N6)nc(OCC56CCCN5CC(F)C6)nc4c3F)c12` (stereo not given), the viability, T/C is, setting by setting: (compound 0.0316 µM) 92.8% and 104% and 99.7%; (compound 0.1 µM) 74.4% and 90.1% and 92.7%; (compound 0.316 µM) 58.9% and 82.1% and 77.1%; (compound 1 µM) 40.6% and 62.5% and 67.6%; (compound 3.16 µM) 37.8% and 70.5% and 53.1%; (compound 10 µM) 30.2% and 42.8% and 41.5%.

With `C=CC(=O)N1CCN(c2nc(=O)n(-c3c(C)ccnc3C(C)C)c3nc(-c4c(O)cccc4F)c(F)cc23)C(C)C1` (stereo not given), the viability, T/C is 96.6% and 99.6% and 101% (compound 0.0316 µM); 94.5% and 96.4% and 104% (compound 0.1 µM); 114% and 106% and 105% (compound 0.316 µM); 111% and 110% (2×) (compound 1 µM); 120% and 113% and 117% (compound 3.16 µM); 109% and 101% and 114% (compound 10 µM). Besides, for the setting “curve of compound”, the IC50 was > 10000 nM.

Take `CC(=O)O[C@H]1C(=O)[C@@]2(C)[C@H]([C@H](OC(=O)c3ccccc3)[C@]3(O)C[C@H](OC(=O)[C@H](O)[C@@H](NC(=O)c4ccccc4)c4ccccc4)C(C)=C1C3(C)C)[C@]1(OC(C)=O)CO[C@@H]1C[C@@H]2O`: the viability, T/C is 29.9% and 31.4% and 22.4% (compound 0.0316 µM); 25.7% and 26.3% and 18.2% (compound 0.1 µM); 25.7% and 20.8% and 15.6% (compound 0.316 µM); 22.3% and 19.5% and 11.7% (compound 1 µM); 22.6% and 20.4% and 11% (compound 3.16 µM); 26.4% and 22.7% and 16.2% (compound 10 µM). The IC50 (curve of compound) was < 31.6 nM.

`CC(C)n1c(=O)n(C)c2cnc3cc(F)c(-c4ccc(OCCCN5CCCCC5)nc4)cc3c21`: the viability, T/C was 96.3% and 102% and 96.4% (compound 0.0316 µM); 87.4% and 89.6% and 75.7% (compound 0.1 µM); 94.5% and 98.5% and 85.1% (compound 0.316 µM); 101% and 94.2% and 96.9% (compound 1 µM); 98.9% and 96.3% and 105% (compound 3.16 µM); 67.4% and 66.7% and 62.4% (compound 10 µM). Where the note is “curve of compound”, the IC50 was > 10000 nM.

For `CC1COCCN1c1cc(-c2ccnn2C)c2ccnc(-c3ccn[nH]3)c2n1` (stereo not given), the viability, T/C was 98.3% and 92.2% and 83.5% (compound 0.0316 µM); 55.4% and 45.4% and 34.2% (compound 0.1 µM); 26% and 26.5% and 18% (compound 0.316 µM); 19.7% and 28.9% and 18.2% (compound 1 µM); 25.6% and 25.3% and 21.7% (compound 3.16 µM); 30% and 31.4% and 23.9% (compound 10 µM). Also, under “curve of compound”, the IC50 was 124 nM and 89.3 nM and 69.2 nM.

For the molecule `CC1COCCN1c1cc(C2(O)CC3CCC(C2)O3)c2cnn(-c3ccn[nH]3)c2n1` (stereo not given), the viability, T/C is, setting by setting: (compound 0.0316 µM) 71.4% and 88.3% and 80.1%; (compound 0.1 µM) 28.2% and 38.6% and 42.2%; (compound 0.316 µM) 23.5% and 28.2% and 31.8%; (compound 1 µM) 21.8% and 24.9% and 25.9%; (compound 3.16 µM) 19.8% and 24.2% and 26.4%; (compound 10 µM) 14.5% and 15.5% and 18.8%. For the same molecule, the 50% inhibitory concentration (IC50) (curve of compound) is 56.8 nM and 79 nM and 82.7 nM.

For `CC1COCCN1c1cc(C2(S(C)(=N)=O)CC2)nc(-c2ccnc3[nH]ccc23)n1` (stereo not given), the viability, T/C by setting is: (compound 0.0316 µM) 95.4% and 101% (2×); (compound 0.1 µM) 98.2% and 91% and 98.3%; (compound 0.316 µM) 96% and 99.7% and 94.1%; (compound 1 µM) 86.7% and 83.5% and 77.8%; (compound 3.16 µM) 39% and 44.6% and 81.2%; (compound 10 µM) 24.2% and 26.8% and 16.7%. The IC50 (curve of compound) is 2420 nM and 2690 nM and 5210 nM.

With `CCCS(=O)(=O)Nc1ccc(F)c(C(=O)c2c[nH]c3ncc(-c4ccc(Cl)cc4)cc23)c1F`, the viability, T/C by setting is: (compound 0.0316 µM) 107% and 95.3% and 95.8%; (compound 0.1 µM) 101% and 100% and 102%; (compound 0.316 µM) 101% and 97.4% and 107%; (compound 1 µM) 97.1% and 102% and 107%; (compound 3.16 µM) 76% and 70.9% and 76.2%; (compound 10 µM) 54.1% and 46.8% and 37.6%. Where the note is “curve of compound”, the IC50 is > 10000 nM and 8570 nM and 6910 nM.

Regarding `CC[C@@]1(O)C(=O)OCc2c1cc1n(c2=O)Cc2cc3c(CN(C)C)c(O)ccc3nc2-1`, the viability, T/C runs as follows: (compound 0.000999 µM) 105% (2×) and 108%; (compound 0.00316 µM) 94.7% and 93.8% and 94.1%; (compound 0.00999 µM) 98% and 95.1% and 105%; (compound 0.0316 µM) 84.5% and 87.9% and 69.8%; (compound 0.0999 µM) 43.6% and 53.2% and 39.2%; (compound 0.316 µM) 49.1% and 51.8% and 48.5%. The IC50 (curve of compound) is 89.5 nM and > 316 nM and 76 nM.

With `CCc1c2c(nc3ccc(O)cc13)-c1cc3c(c(=O)n1C2)COC(=O)[C@]3(O)CC`, the viability, T/C is, setting by setting: (compound 0.000999 µM) 65.9% and 72.5% and 67.1%; (compound 0.00316 µM) 36% and 43.4% and 27.6%; (compound 0.00999 µM) 44% and 61.2% and 38.6%; (compound 0.0316 µM) 36% and 47.2% and 30.2%; (compound 0.0999 µM) 27% and 38.1% and 23.1%; (compound 0.316 µM) 16.4% and 21.9% and 12.8%.

With `CN(C)c1ccc(Nc2c3ccc(NC(=O)CCN4CCCC4)cc3nc3cc(NC(=O)CCN4CCCC4)ccc23)cc1`, the viability, T/C runs as follows: (compound 0.0316 µM) 102% [middle of 12 runs]; (compound 0.1 µM) 101% [middle of 12 runs]; (compound 0.316 µM) 99.9% [middle of 11 runs]; (compound 1 µM) 90% [middle of 12 runs]; (compound 3.16 µM) 86.2% [middle of 12 runs]; (compound 10 µM) 86% [middle of 12 runs]. The IC50 (compound alone, run of 03/26/2024) was > 10000 nM.

Source of the values: PubChem BioAssay AID2060484 (Molecular Pharmacology Branch, DTP, NCI, 2025).
